Test: xn = mol fraction of the nth substance listed
Settings: 298.15 K, 101.3 kPa, Liquid; for viscosity: Capillary tube (Ostwald / Ubbelohde) method

ClC(Cl)=C(Cl)Cl [tetrachloroethene] + Cc1ccccc1
Settings	mass density [kg/m3]	viscosity [mPa·s]
x1 = 0.1034	932	0.5799
x1 = 0.2062	1004.7	0.6014
x1 = 0.3079	1078.4	0.6234
x1 = 0.4093	1151.3	0.6477
x1 = 0.5095	1225.3	0.6743
x1 = 0.6092	1300.1	0.7053
x1 = 0.7083	1376.8	0.7377
x1 = 0.806	1451.7	0.7701
x1 = 0.9038	1530.1	0.8084
x1 = 1	1610.2	0.8474

CCCCO [butan-1-ol] + ClC=C(Cl)Cl
x2 = 0
Settings	mass density [kg/m3]	viscosity [mPa·s]
–	806.3	2.538

ClC=C(Cl)Cl [trichloroethene] + CCCCO
Settings	mass density [kg/m3]	viscosity [mPa·s]
x1 = 0.1018	870	2.098
x1 = 0.2033	934.3	1.734
x1 = 0.3038	997.5	1.429
x1 = 0.4042	1061.9	1.19
x1 = 0.5046	1126.5	1.008
x1 = 0.6045	1191.4	0.8696
x1 = 0.7042	1257	0.7737
x1 = 0.8025	1321.9	0.6878
x1 = 0.9014	1388.3	0.6227
x1 = 1	1455.7	0.551

CCOC(C)=O [ethyl acetate] + ClC(Cl)=C(Cl)Cl
x2 = 0
Settings	mass density [kg/m3]	viscosity [mPa·s]
–	894	0.4274

CC(C)=O [acetone] + ClC=C(Cl)Cl
x2 = 0
Settings	mass density [kg/m3]	viscosity [mPa·s]
–	780.8	0.3121

ClC(Cl)(Cl)Cl [tetrachloromethane] + ClC(Cl)=C(Cl)Cl
x2 = 0
Settings	mass density [kg/m3]	viscosity [mPa·s]
–	1586.1	0.9096

ClC(Cl)=C(Cl)Cl [tetrachloroethene] + COC(C)=O
Settings	mass density [kg/m3]	viscosity [mPa·s]
x1 = 0.0796	989.2	0.4237
x1 = 0.1628	1054.7	0.4749
x1 = 0.25	1120.7	0.5226
x1 = 0.3415	1188.6	0.5729
x1 = 0.4373	1255.3	0.6243
x1 = 0.5388	1322.7	0.6708
x1 = 0.6452	1393.1	0.7166
x1 = 0.7573	1464.2	0.7614
x1 = 0.8749	1535.4	0.8038
x1 = 1	1610.2	0.8474

CC(C)O [propan-2-ol] + ClC(Cl)=C(Cl)Cl
x2 = 0
Settings	mass density [kg/m3]	viscosity [mPa·s]
–	784.3	2.044

CO [methanol] + ClC=C(Cl)Cl
x2 = 0
Settings	mass density [kg/m3]	viscosity [mPa·s]
–	788.1	0.5482

CCC(C)O (configuration not stated) [butan-2-ol] + ClC(Cl)=C(Cl)Cl
x2 = 0
Settings	mass density [kg/m3]	viscosity [mPa·s]
–	804.8	3.103

c1ccccc1 [benzene] + ClC(Cl)=C(Cl)Cl
x2 = 0
Settings	mass density [kg/m3]	viscosity [mPa·s]
–	869.7	0.608

Cc1ccccc1 [toluene] + ClC=C(Cl)Cl
x2 = 0
Settings	mass density [kg/m3]	viscosity [mPa·s]
–	860.5	0.5641

ClC=C(Cl)Cl [trichloroethene] + CCOC(C)=O
Settings	mass density [kg/m3]	viscosity [mPa·s]
x1 = 0.1086	944.2	0.4658
x1 = 0.2151	998.6	0.5023
x1 = 0.3189	1052.8	0.5302
x1 = 0.4219	1108.6	0.5564
x1 = 0.5226	1163.7	0.5685
x1 = 0.6215	1220.2	0.5705
x1 = 0.7185	1277.3	0.5681
x1 = 0.8143	1335.6	0.563
x1 = 0.908	1393.5	0.5589
x1 = 1	1455.7	0.551

ClC=C(Cl)Cl [trichloroethene] + COC(C)=O
Settings	mass density [kg/m3]	viscosity [mPa·s]
x1 = 0.09	972.6	0.4128
x1 = 0.182	1022.8	0.4443
x1 = 0.2755	1074.4	0.4699
x1 = 0.372	1125.3	0.4925
x1 = 0.4703	1177.5	0.5147
x1 = 0.5713	1230.9	0.5325
x1 = 0.6748	1283.9	0.5447
x1 = 0.7806	1341	0.555
x1 = 0.8886	1397.9	0.5598
x1 = 1	1455.7	0.551

CCCO [propan-1-ol] + ClC=C(Cl)Cl
x2 = 0
Settings	mass density [kg/m3]	viscosity [mPa·s]
–	800	1.954

ClC(Cl)=C(Cl)Cl [tetrachloroethene] + CCOC(C)=O
Settings	mass density [kg/m3]	viscosity [mPa·s]
x1 = 0.0962	961.2	0.4946
x1 = 0.1932	1030.8	0.5525
x1 = 0.291	1100.6	0.6095
x1 = 0.3899	1171	0.6633
x1 = 0.4894	1241.8	0.711
x1 = 0.5901	1313.6	0.7481
x1 = 0.6911	1385.7	0.7788
x1 = 0.7937	1460	0.8078
x1 = 0.8964	1534.5	0.8295
x1 = 1	1610.2	0.8474

CCC(C)=O [butanone] + ClC=C(Cl)Cl
x2 = 0
Settings	mass density [kg/m3]	viscosity [mPa·s]
–	797.4	0.4011

CCOC(C)=O [ethyl acetate] + ClC=C(Cl)Cl
x2 = 0
Settings	mass density [kg/m3]	viscosity [mPa·s]
–	894	0.4274

CC(C)=O [acetone] + ClC(Cl)=C(Cl)Cl
x2 = 0
Settings	mass density [kg/m3]	viscosity [mPa·s]
–	780.8	0.3121

ClC(Cl)=C(Cl)Cl [tetrachloroethene] + CC(C)O
Settings	mass density [kg/m3]	viscosity [mPa·s]
x1 = 0.0763	864.9	1.855
x1 = 0.1567	946.4	1.676
x1 = 0.2417	1026.7	1.51
x1 = 0.3313	1107.5	1.364
x1 = 0.4266	1189.3	1.236
x1 = 0.5276	1271.6	1.123
x1 = 0.6349	1355.4	1.025
x1 = 0.7486	1437.6	0.9401
x1 = 0.8705	1523.6	0.8824
x1 = 1	1610.2	0.8474

ClC=C(Cl)Cl [trichloroethene] + CC(C)=O
Settings	mass density [kg/m3]	viscosity [mPa·s]
x1 = 0.084	845.9	0.3412
x1 = 0.1712	912.3	0.3688
x1 = 0.2608	978.8	0.3958
x1 = 0.3544	1045	0.4244
x1 = 0.4519	1111.6	0.4501
x1 = 0.5528	1179	0.4723
x1 = 0.6582	1246.4	0.4906
x1 = 0.7671	1315.6	0.5107
x1 = 0.8815	1385.7	0.5309
x1 = 1	1455.7	0.551

ClC=C(Cl)Cl [trichloroethene] + CCC(C)=O
Settings	mass density [kg/m3]	viscosity [mPa·s]
x1 = 0.1004	861.2	0.4307
x1 = 0.2005	924.2	0.4566
x1 = 0.3002	987.2	0.4835
x1 = 0.4005	1052.5	0.5088
x1 = 0.5005	1117.6	0.5281
x1 = 0.6007	1183.7	0.5391
x1 = 0.7004	1249.6	0.5455
x1 = 0.8004	1315.5	0.5499
x1 = 0.8998	1385.4	0.5495
x1 = 1	1455.7	0.551

ClC(Cl)=C(Cl)Cl [tetrachloroethene] + CCCO
Settings	mass density [kg/m3]	viscosity [mPa·s]
x1 = 0.0749	879	1.79
x1 = 0.1541	958.4	1.632
x1 = 0.2379	1038.5	1.488
x1 = 0.3269	1117.4	1.35
x1 = 0.4214	1197.5	1.218
x1 = 0.5229	1278.9	1.11
x1 = 0.6302	1360.9	1.011
x1 = 0.745	1442.8	0.9253
x1 = 0.8679	1525.7	0.8657
x1 = 1	1610.2	0.8474

ClC(Cl)=C(Cl)Cl [tetrachloroethene] + CCO
Settings	mass density [kg/m3]	viscosity [mPa·s]
x1 = 0.0593	868.1	1.073
x1 = 0.1243	949.6	1.04
x1 = 0.1957	1029.4	1.007
x1 = 0.2746	1111.3	0.9767
x1 = 0.3619	1191.8	0.9475
x1 = 0.4601	1273.7	0.9189
x1 = 0.57	1356	0.8939
x1 = 0.6944	1440	0.8729
x1 = 0.8364	1524.9	0.8551
x1 = 1	1610.2	0.8474

ClC=C(Cl)Cl [trichloroethene] + CC(C)O
Settings	mass density [kg/m3]	viscosity [mPa·s]
x1 = 0.0866	850.4	1.764
x1 = 0.1754	916.6	1.514
x1 = 0.2667	982.1	1.306
x1 = 0.3613	1047.6	1.119
x1 = 0.4594	1113.9	0.9582
x1 = 0.5602	1180.9	0.8218
x1 = 0.665	1249.2	0.7173
x1 = 0.7724	1316.8	0.6451
x1 = 0.8846	1385.9	0.6004
x1 = 1	1455.7	0.551

ClC(Cl)(Cl)Cl [tetrachloromethane] + ClC=C(Cl)Cl
x2 = 0
Settings	mass density [kg/m3]	viscosity [mPa·s]
–	1586.1	0.9096

ClC=C(Cl)Cl [trichloroethene] + CO
Settings	mass density [kg/m3]	viscosity [mPa·s]
x1 = 0.0477	853.7	0.5565
x1 = 0.1014	920.3	0.5667
x1 = 0.1616	985.5	0.5738
x1 = 0.2308	1052.1	0.5833
x1 = 0.3105	1117.9	0.595
x1 = 0.4033	1184.5	0.6017
x1 = 0.5125	1251.2	0.6021
x1 = 0.643	1318.4	0.5908
x1 = 0.8021	1386.3	0.575
x1 = 1	1455.7	0.551

COC(C)=O [methyl ethanoate] + ClC=C(Cl)Cl
x2 = 0
Settings	mass density [kg/m3]	viscosity [mPa·s]
–	923.9	0.3711

ClC(Cl)=C(Cl)Cl [tetrachloroethene] + CO
Settings	mass density [kg/m3]	viscosity [mPa·s]
x1 = 0.042	868.7	0.5644
x1 = 0.0897	950.1	0.5806
x1 = 0.1446	1030.1	0.5981
x1 = 0.2082	1112	0.6209
x1 = 0.2828	1192.6	0.6449
x1 = 0.372	1274.4	0.6751
x1 = 0.4795	1355.9	0.7069
x1 = 0.6123	1439.7	0.7412
x1 = 0.7804	1524.3	0.7875
x1 = 1	1610.2	0.8474

CCO [ethanol] + ClC(Cl)=C(Cl)Cl
x2 = 0
Settings	mass density [kg/m3]	viscosity [mPa·s]
–	787.4	1.112

ClC=C(Cl)Cl [trichloroethene] + CCO
Settings	mass density [kg/m3]	viscosity [mPa·s]
x1 = 0.0673	852.4	1.047
x1 = 0.1397	918.2	0.9855
x1 = 0.2173	983.9	0.9272
x1 = 0.3018	1049.4	0.8651
x1 = 0.3932	1115.8	0.8082
x1 = 0.493	1182.4	0.7528
x1 = 0.602	1249.4	0.6984
x1 = 0.7215	1317.1	0.647
x1 = 0.8563	1385.6	0.5974
x1 = 1	1455.7	0.551

ClC(Cl)=C(Cl)Cl [tetrachloroethene] + CCC(C)O
Settings	mass density [kg/m3]	viscosity [mPa·s]
x1 = 0.0903	883.6	2.66
x1 = 0.1825	962.6	2.28
x1 = 0.2769	1042.5	1.944
x1 = 0.3734	1121.1	1.667
x1 = 0.4718	1201.2	1.453
x1 = 0.5733	1281.9	1.262
x1 = 0.6759	1362.6	1.119
x1 = 0.7817	1444.3	1.005
x1 = 0.8891	1525.8	0.9029
x1 = 1	1610.2	0.8474

ClC(Cl)=C(Cl)Cl [tetrachloroethene] + c1ccccc1
Settings	mass density [kg/m3]	viscosity [mPa·s]
x1 = 0.0883	939.8	0.6141
x1 = 0.1788	1011.5	0.6279
x1 = 0.272	1084.6	0.6438
x1 = 0.3674	1156.7	0.6618
x1 = 0.4655	1228.8	0.6834
x1 = 0.5671	1302.3	0.7088
x1 = 0.6706	1377.4	0.7367
x1 = 0.777	1453.2	0.7693
x1 = 0.8873	1531.7	0.8051
x1 = 1	1610.2	0.8474
